Experimental data: PubChem BioAssay (NCI)
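Dose response: 5 concentrations. Exposure: 48 h. Format: 96-well plates. Endpoint: linear interpolation; highest concentration if not reached. At the GI50, growth is halved. TGI marks complete inhibition of growth.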

Experiments:
Assay in all cases: NCI-60 cell line screen, 48 h
[1] = test system: UO-31 renal
[2] = test system: UACC-62 melanoma
[3] = test system: HOP-62 NSCLC
[4] = test system: MCF7 breast
[5] = test system: SK-MEL-5 melanoma
[6] = test system: CCRF-CEM leukemia
[7] = test system: NCI/ADR-RES ovarian
[8] = test system: OVCAR-3 ovarian
[9] = test system: SF-539 CNS
[10] = test system: M14 melanoma
[11] = test system: HS 578T breast
[12] = test system: RXF 393 renal
[13] = test system: HCC-2998 colon
[14] = test system: SNB-19 CNS
[15] = test system: DU-145 prostate
[16] = test system: OVCAR-4 ovarian
[17] = test system: K-562 leukemia
[18] = test system: TK-10 renal
[19] = test system: HCT-15 colon
[20] = test system: NCI-H23 lung
[21] = test system: HT29 colon
[22] = test system: COLO 205 colon
[23] = test system: KM12 colon
[24] = test system: SNB-75 CNS
[25] = test system: MDA-MB-231 breast
[26] = test system: MOLT-4 leukemia
[27] = test system: OVCAR-8 ovarian
[28] = test system: MDA-MB-435
[29] = test system: HCT-116 colon
[30] = test system: HL-60(TB) leukemia
[31] = test system: T-47D breast
[32] = test system: U251 CNS
[33] = test system: 786-0 renal
[34] = test system: SF-295 CNS
[35] = test system: RPMI-8226 leukemia
[36] = test system: SW-620 colon
[37] = test system: LOX IMVI melanoma
[38] = test system: HOP-92 NSCLC
[39] = test system: A549 NSCLC
[40] = test system: MALME-3M melanoma
[41] = test system: SK-MEL-28 melanoma
[42] = test system: UACC-257 melanoma
[43] = test system: MDA-MB-468 breast
[44] = test system: BT-549 breast
[45] = test system: SF-268 CNS
[46] = test system: NCI-H460 lung
[47] = test system: SN12C renal
[48] = test system: ACHN renal
[49] = test system: PC-3 prostate
[50] = test system: SK-OV-3 ovarian
[51] = test system: SK-MEL-2 melanoma
[52] = test system: NCI-H226 lung
[53] = test system: NCI-H522 lung
[54] = test system: CAKI-1 renal
[55] = test system: EKVX NSCLC
[56] = test system: OVCAR-5 ovarian
[57] = test system: A498 renal
[58] = test system: IGROV1 ovarian
[59] = test system: SR leukemia

Q: Which GI50 [1] does the source give for `CNS(=O)(=O)N1CCc2c(Br)c3c(c(OC)c2C1CCc1ccccc1)OCO3` (stereo not drawn) here?
A: 10.2 µM

Q: And the TGI [1]?
A: 69.1 µM

Q: What about the GI50 [2] of the same compound?
A: 6.4 µM

Q: And the TGI [2]?
A: 21.4 µM

Q: What about the GI50 [3] of the same compound?
A: 13.5 µM

Q: What about the TGI [3] of the same compound?
A: 37.5 µM

Q: What about the GI50 [4] of the same compound?
A: 16.6 µM

Q: What about the TGI [4] of the same compound?
A: 90.7 µM

Q: And the GI50 [5]?
A: 15.4 µM

Q: What about the TGI [5] of the same compound?
A: 28.8 µM

Q: And the GI50 [6]?
A: 24.3 µM

Q: And the TGI [6]?
A: > 100 µM

Q: What about the GI50 [7] of the same compound?
A: 14 µM

Q: And the TGI [7]?
A: 86.9 µM

Q: What about the GI50 [8] of the same compound?
A: 13.7 µM

Q: And the TGI [8]?
A: 29.9 µM

Q: What about the GI50 [9] of the same compound?
A: 15.2 µM

Q: What about the TGI [9] of the same compound?
A: 30.1 µM

Q: And the GI50 [10]?
A: 12.2 µM

Q: What about the TGI [10] of the same compound?
A: 34 µM

Q: And the GI50 [11]?
A: 12.7 µM

Q: What about the TGI [11] of the same compound?
A: 42 µM

Q: And the GI50 [12]?
A: 13.5 µM

Q: What about the TGI [12] of the same compound?
A: 31.4 µM

Q: And the GI50 [13]?
A: 18.4 µM

Q: And the TGI [13]?
A: 75.7 µM

Q: What about the GI50 [14] of the same compound?
A: 23.8 µM

Q: And the TGI [14]?
A: > 100 µM

Q: What about the GI50 [15] of the same compound?
A: 29.2 µM

Q: What about the TGI [15] of the same compound?
A: > 100 µM

Q: What about the GI50 [16] of the same compound?
A: 14.7 µM

Q: And the TGI [16]?
A: 85 µM

Q: And the GI50 [17]?
A: 17.3 µM

Q: And the TGI [17]?
A: > 100 µM

Q: And the GI50 [18]?
A: 34.4 µM

Q: And the TGI [18]?
A: > 100 µM

Q: And the GI50 [19]?
A: 23.1 µM

Q: What about the TGI [19] of the same compound?
A: > 100 µM

Q: And the GI50 [20]?
A: 17 µM

Q: What about the TGI [20] of the same compound?
A: 72.4 µM

Q: What about the GI50 [21] of the same compound?
A: 18.7 µM

Q: What about the TGI [21] of the same compound?
A: > 100 µM

Q: And the GI50 [22]?
A: 14.9 µM

Q: And the TGI [22]?
A: 30.7 µM

Q: What about the GI50 [23] of the same compound?
A: 19.4 µM

Q: What about the TGI [23] of the same compound?
A: 78.1 µM

Q: And the GI50 [24]?
A: 4.24 µM

Q: What about the TGI [24] of the same compound?
A: 34.5 µM

Q: What about the GI50 [25] of the same compound?
A: 7.33 µM

Q: And the TGI [25]?
A: 22.3 µM

Q: And the GI50 [26]?
A: 10.4 µM

Q: And the TGI [26]?
A: > 100 µM

Q: And the GI50 [27]?
A: 24.6 µM

Q: And the TGI [27]?
A: > 100 µM

Q: What about the GI50 [28] of the same compound?
A: 12.5 µM

Q: And the TGI [28]?
A: 31.3 µM

Q: And the GI50 [29]?
A: 6.64 µM

Q: What about the TGI [29] of the same compound?
A: 26.3 µM

Q: And the GI50 [30]?
A: 22.9 µM

Q: And the TGI [30]?
A: 61.9 µM

Q: What about the GI50 [31] of the same compound?
A: 9.48 µM

Q: And the TGI [31]?
A: 67.4 µM

Q: What about the GI50 [32] of the same compound?
A: 15.6 µM

Q: And the TGI [32]?
A: 35.6 µM

Q: And the GI50 [33]?
A: 19.6 µM

Q: What about the TGI [33] of the same compound?
A: 62.5 µM

Q: What about the GI50 [34] of the same compound?
A: 11.1 µM

Q: What about the TGI [34] of the same compound?
A: 31.8 µM

Q: And the GI50 [35]?
A: 12.4 µM

Q: And the TGI [35]?
A: > 100 µM

Q: What about the GI50 [36] of the same compound?
A: 21.8 µM

Q: What about the TGI [36] of the same compound?
A: > 100 µM

Q: What about the GI50 [37] of the same compound?
A: 10.1 µM

Q: What about the TGI [37] of the same compound?
A: 23.5 µM

Q: And the GI50 [38]?
A: 11.4 µM

Q: And the TGI [38]?
A: 33.4 µM

Q: What about the GI50 [39] of the same compound?
A: 14.7 µM

Q: And the TGI [39]?
A: > 100 µM

Q: And the GI50 [40]?
A: 17.8 µM

Q: What about the TGI [40] of the same compound?
A: 34.8 µM

Q: What about the GI50 [41] of the same compound?
A: 15.7 µM

Q: What about the TGI [41] of the same compound?
A: 31.1 µM

Q: What about the GI50 [42] of the same compound?
A: 20.9 µM

Q: What about the TGI [42] of the same compound?
A: 51.5 µM

Q: And the GI50 [43]?
A: 9.95 µM

Q: What about the TGI [43] of the same compound?
A: 35.5 µM

Q: What about the GI50 [44] of the same compound?
A: 15.4 µM

Q: And the TGI [44]?
A: 30 µM

Q: And the GI50 [45]?
A: 16.8 µM

Q: And the TGI [45]?
A: > 100 µM

Q: And the GI50 [46]?
A: 13.7 µM

Q: What about the TGI [46] of the same compound?
A: 30.1 µM

Q: What about the GI50 [47] of the same compound?
A: 11.6 µM

Q: And the TGI [47]?
A: 24.7 µM

Q: What about the GI50 [48] of the same compound?
A: 20.3 µM

Q: And the TGI [48]?
A: 92.2 µM

Q: And the GI50 [49]?
A: 5.67 µM

Q: What about the TGI [49] of the same compound?
A: > 100 µM

Q: What about the GI50 [50] of the same compound?
A: 20.9 µM

Q: What about the TGI [50] of the same compound?
A: 73.6 µM

Q: What about the GI50 [51] of the same compound?
A: 14.5 µM

Q: And the TGI [51]?
A: 30.7 µM

Q: And the GI50 [52]?
A: 10.8 µM

Q: What about the TGI [52] of the same compound?
A: 25.8 µM

Q: And the GI50 [53]?
A: 13 µM

Q: And the TGI [53]?
A: 38.7 µM

Q: And the GI50 [54]?
A: 7.25 µM

Q: And the TGI [54]?
A: > 100 µM

Q: What about the GI50 [55] of the same compound?
A: 14.1 µM

Q: What about the TGI [55] of the same compound?
A: > 100 µM

Q: What about the GI50 [56] of the same compound?
A: 14.1 µM

Q: What about the TGI [56] of the same compound?
A: 33.8 µM

Q: And the GI50 [57]?
A: 15.7 µM

Q: And the TGI [57]?
A: 34.6 µM

Q: What about the GI50 [58] of the same compound?
A: 14.1 µM

Q: What about the TGI [58] of the same compound?
A: 81.6 µM

Q: And the GI50 [59]?
A: 24 µM

Q: And the TGI [59]?
A: > 100 µM
